Measured values reported in ChEMBL document CHEMBL1201862, “PubChem BioAssay data set” (2004).
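Results reflect a 48-hour exposure of cells in 96-well plates to compound at five concentrations. Abbreviation: GI50, concentration required for 50% inhibition of growth.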 Calls of active or inactive are those of the source. Rule as the data show it: active = GI50 up to about 1.1 µM and inactive = higher.

What was measured:
Experiment in all cases: DTP human tumour cell line panel, 48 h
DU-145 = system: DU-145
MDA-MB-231 = system: MDA-MB-231
Hs-578T = system: Hs-578T
SNB-19 = system: SNB-19
NCI/ADR-RES = system: NCI/ADR-RES
HOP-92 = system: HOP-92
SR = system: SR
Malme-3M = system: Malme-3M
LOX IMVI = system: LOX IMVI
SK-MEL-2 = system: SK-MEL-2
EKVX = system: EKVX
HCT-116 = system: HCT-116
M14 = system: M14
CCRF-CEM = system: CCRF-CEM
UACC-257 = system: UACC-257
NCI-H522 = system: NCI-H522
SF-295 = system: SF-295
OVCAR-3 = system: OVCAR-3
SK-OV-3 = system: SK-OV-3

Measured: GI50

N#CC1C(=S)NC(c2ccccc2)=CC12CCCCC2 (centres undefined)
inactive: DU-145 26.6 µM | MDA-MB-231 38.9 µM | Hs-578T 53.7 µM | SNB-19 32.5 µM | NCI/ADR-RES 28.8 µM | HOP-92 18.6 µM | SR 21.1 µM | Malme-3M 22.2 µM | LOX IMVI 18.6 µM | SK-MEL-2 24 µM | EKVX 17.8 µM | HCT-116 24.5 µM | M14 26.1 µM | CCRF-CEM 25.5 µM | UACC-257 64.7 µM | NCI-H522 22.1 µM

Cc1nnc(SCc2nc(C#N)c(C#N)nc2CSc2nnc(C)s2)s1
inactive: DU-145 14.5 µM | SF-295 39.4 µM | MDA-MB-231 16.6 µM | Hs-578T 17.1 µM | SNB-19 47.5 µM | NCI/ADR-RES 30.6 µM | OVCAR-3 6.78 µM | HOP-92 12.9 µM | SR 4.6 µM | Malme-3M 5.75 µM | LOX IMVI 8.89 µM | SK-MEL-2 25.2 µM | EKVX 14.7 µM | HCT-116 4.55 µM | M14 16.6 µM | CCRF-CEM 1.98 µM | UACC-257 13.8 µM | NCI-H522 3.34 µM | SK-OV-3 33.3 µM

O=[N+]([O-])C(=C(N1CCOCC1)N1CCOCC1)/C(Cl)=C(\Cl)Br
inactive: DU-145 46.6 µM | SF-295 > 100 µM | MDA-MB-231 17.9 µM | Hs-578T > 100 µM | SNB-19 > 100 µM | NCI/ADR-RES 22.2 µM | OVCAR-3 14.5 µM | HOP-92 16.2 µM | SR 17.2 µM | Malme-3M 16.1 µM | LOX IMVI 19.3 µM | SK-MEL-2 21.8 µM | EKVX 17.1 µM | HCT-116 17.1 µM | M14 13.4 µM | CCRF-CEM 2.65 µM | UACC-257 17.3 µM | NCI-H522 2.41 µM

Clc1cc(Cl)ncn1
inactive: DU-145 > 100 µM | SF-295 > 100 µM | MDA-MB-231 > 100 µM | Hs-578T > 100 µM | SNB-19 > 100 µM | NCI/ADR-RES > 100 µM | OVCAR-3 > 100 µM | HOP-92 > 100 µM | SR > 100 µM | Malme-3M > 100 µM | LOX IMVI > 100 µM | HCT-116 > 100 µM | M14 > 100 µM | CCRF-CEM > 100 µM | NCI-H522 > 100 µM | SK-OV-3 > 100 µM

O=C(O)c1nc2ccc(Cl)cc2[nH]c1=O
inactive: DU-145 > 100 µM | SF-295 > 100 µM | MDA-MB-231 > 100 µM | Hs-578T > 100 µM | SNB-19 > 100 µM | NCI/ADR-RES > 100 µM | OVCAR-3 > 100 µM | HOP-92 > 100 µM | SR > 100 µM | Malme-3M > 100 µM | LOX IMVI > 100 µM | SK-MEL-2 > 100 µM | EKVX > 100 µM | HCT-116 > 100 µM | M14 > 100 µM | CCRF-CEM > 100 µM | UACC-257 > 100 µM | NCI-H522 > 100 µM | SK-OV-3 > 100 µM

Nc1ncc2c(n1)-c1ccccc1OC2N1CCCCC1 (centres undefined)
inactive: DU-145 > 100 µM | SF-295 > 100 µM | MDA-MB-231 > 100 µM | Hs-578T > 100 µM | SNB-19 > 100 µM | NCI/ADR-RES > 100 µM | OVCAR-3 > 100 µM | HOP-92 > 100 µM | SR > 100 µM | LOX IMVI > 100 µM | SK-MEL-2 > 100 µM | EKVX 95.1 µM | HCT-116 > 100 µM | M14 > 100 µM | CCRF-CEM > 100 µM | UACC-257 > 100 µM | NCI-H522 > 100 µM | SK-OV-3 > 100 µM

COc1ccc(C2CC(C)(O)Oc3cc4c(cc32)OCO4)cc1 (centres undefined)
inactive: DU-145 61.2 µM | SF-295 30.8 µM | MDA-MB-231 32.6 µM | Hs-578T 26.6 µM | SNB-19 38.4 µM | NCI/ADR-RES 23.3 µM | OVCAR-3 32.3 µM | HOP-92 28.4 µM | SR 24.2 µM | Malme-3M 47.2 µM | LOX IMVI 27.2 µM | SK-MEL-2 15.8 µM | EKVX 40.2 µM | HCT-116 30.6 µM | M14 36 µM | CCRF-CEM 19.3 µM | UACC-257 32.4 µM | NCI-H522 11.2 µM

CN1c2ccccc2C2=C(c3ccccc3)CC[C@@H](C(=O)N3C4CC5CC[C@@]4(CS3(=O)=O)C5(C)C)[C@@H]21 (some centres undefined)
inactive: DU-145 > 100 µM | SF-295 > 100 µM | MDA-MB-231 > 100 µM | Hs-578T > 100 µM | SNB-19 > 100 µM | NCI/ADR-RES > 100 µM | OVCAR-3 > 100 µM | HOP-92 > 100 µM | SR > 100 µM | Malme-3M > 100 µM | LOX IMVI > 100 µM | EKVX > 100 µM | HCT-116 34.2 µM | M14 > 100 µM | CCRF-CEM > 100 µM | UACC-257 > 100 µM | NCI-H522 92.3 µM | SK-OV-3 > 100 µM

COC(=O)[C@@H]1CCc2nc3ccccc3c(=O)n21
inactive: DU-145 > 100 µM | SF-295 > 100 µM | MDA-MB-231 > 100 µM | Hs-578T > 100 µM | NCI/ADR-RES > 100 µM | OVCAR-3 > 100 µM | HOP-92 > 100 µM | SR > 100 µM | LOX IMVI > 100 µM | SK-MEL-2 > 100 µM | EKVX > 100 µM | HCT-116 > 100 µM | M14 > 100 µM | CCRF-CEM > 100 µM | UACC-257 > 100 µM | NCI-H522 > 100 µM | SK-OV-3 > 100 µM

CN(C)CCNc1ccc([N+](=O)[O-])c2sc3ccccc3c(=O)c12
inactive: DU-145 5.07 µM | SF-295 4.24 µM | MDA-MB-231 1.99 µM | Hs-578T 5.52 µM | SNB-19 5.14 µM | NCI/ADR-RES 3.44 µM | OVCAR-3 3.68 µM | HOP-92 3.84 µM | SR 1.56 µM | Malme-3M 4.27 µM | SK-MEL-2 14.1 µM | EKVX 4.5 µM | HCT-116 2.47 µM | M14 6.71 µM | CCRF-CEM 2.26 µM | UACC-257 6.28 µM | NCI-H522 1.56 µM | SK-OV-3 7.71 µM

COC(=O)C1=NN2c3ccccc3C(=O)OCCC2C1 (centres undefined)
inactive: DU-145 > 100 µM | SF-295 > 100 µM | MDA-MB-231 > 100 µM | Hs-578T > 100 µM | NCI/ADR-RES > 100 µM | OVCAR-3 > 100 µM | HOP-92 46.5 µM | SR > 100 µM | Malme-3M > 100 µM | LOX IMVI > 100 µM | SK-MEL-2 > 100 µM | EKVX > 100 µM | HCT-116 > 100 µM | CCRF-CEM > 100 µM | UACC-257 > 100 µM | NCI-H522 > 100 µM | SK-OV-3 > 100 µM
